System: PDC KRAS tumor spheroids with HUVEC/MSC, viability
Assay: Anticancer human tumor 349418-098-R-PDC patient-derived lung adenocarcinoma cell line growth inhibition [KRAS2]
Details: for viability, T/C: stronger effect = lower value
How it was run: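 Combination screen of spheroid viability in tumor-cell co-cultures with endothelial (HUVEC) and mesenchymal stem cell stroma. Each agent was tested in half-log dilutions, topping at clinical Cmax or at 10 microM without a known Cmax.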

[1] = curve of first compound, second compound 0.1 µM
[2] = curve of first compound, second compound 0.316 µM
[3] = curve of first compound, second compound 1 µM
[4] = curve of first compound, second compound 3.16 µM
[5] = curve of first compound, second compound 10 µM
[6] = second compound 0.1 µM, first compound 0.0316 µM
[7] = second compound 0.1 µM, first compound 0.1 µM
[8] = second compound 0.1 µM, first compound 0.316 µM
[9] = second compound 0.1 µM, first compound 1 µM
[10] = second compound 0.1 µM, first compound 3.16 µM
[11] = second compound 0.1 µM, first compound 10 µM
[12] = second compound 0.316 µM, first compound 0.0316 µM
[13] = second compound 0.316 µM, first compound 0.1 µM
[14] = second compound 0.316 µM, first compound 0.316 µM
[15] = second compound 0.316 µM, first compound 1 µM
[16] = second compound 0.316 µM, first compound 3.16 µM
[17] = second compound 0.316 µM, first compound 10 µM
[18] = second compound 1 µM, first compound 0.0316 µM
[19] = second compound 1 µM, first compound 0.1 µM
[20] = second compound 1 µM, first compound 0.316 µM
[21] = second compound 1 µM, first compound 1 µM
[22] = second compound 1 µM, first compound 3.16 µM
[23] = second compound 1 µM, first compound 10 µM
[24] = second compound 3.16 µM, first compound 0.0316 µM
[25] = second compound 3.16 µM, first compound 0.1 µM
[26] = second compound 3.16 µM, first compound 0.316 µM
[27] = second compound 3.16 µM, first compound 1 µM
[28] = second compound 3.16 µM, first compound 3.16 µM
[29] = second compound 3.16 µM, first compound 10 µM
[30] = second compound 10 µM, first compound 0.0316 µM
[31] = second compound 10 µM, first compound 0.1 µM
[32] = second compound 10 µM, first compound 0.316 µM
[33] = second compound 10 µM, first compound 1 µM
[34] = second compound 10 µM, first compound 3.16 µM
[35] = second compound 10 µM, first compound 10 µM
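Further: spheroids exposed to compounds for seven days before readout.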

Compound | viability, T/C (compound 10 µM) | IC50 [1] [nM] | IC50 [2] [nM] | IC50 [3] [nM] | IC50 [4] [nM] | IC50 [5] [nM] | viability, T/C [6] [%] | viability, T/C [7] [%] | viability, T/C [8] [%] | viability, T/C [9] [%] | viability, T/C [10] [%] | viability, T/C [11] [%] | viability, T/C [12] [%] | viability, T/C [13] [%] | viability, T/C [14] [%] | viability, T/C [15] [%] | viability, T/C [16] [%] | viability, T/C [17] [%] | viability, T/C [18] [%] | viability, T/C [19] [%] | also measured
CNCc1ccccc1-c1csc(C(C)Nc2nc(C)nc3cc(OC)c(OC)cc23)c1 (stereo not given) | 0.1% [middle of 12 runs] | – | – | – | – | – | – | – | – | – | – | – | – | – | – | – | – | – | – | – | IC50 (compound alone, run of 07/19/2021): 1.6 µM [middle of 5 runs]; IC50 (compound alone, run of 07/26/2021): 1.09 µM [middle of 6 runs]
CC(C)NCC(C(=O)N1CCN(c2ncnc3c2C(C)CC3O)CC1)c1ccc(Cl)cc1 (stereo not given) | 7.52% [middle of 5 runs] | – | – | – | – | – | – | – | – | – | – | – | – | – | – | – | – | – | – | – | viability, T/C (compound 0.0316 µM): 93.4% [middle of 5 runs]; viability, T/C (compound 0.1 µM): 77.8% [middle of 5 runs]; viability, T/C (compound 0.316 µM): 49.3% [middle of 5 runs]; viability, T/C (compound 1 µM): 27.4% [middle of 5 runs]; viability, T/C (compound 3.16 µM): 17.1% [middle of 5 runs]; IC50 (curve of compound): 334 nM [middle of 5 runs]
CC(C)NCC(C(=O)N1CCN(c2ncnc3c2C(C)CC3O)CC1)c1ccc(Cl)cc1 (stereo not given) + CC1OCC2(CCN(c3cnc(Sc4ccnc(N)c4Cl)c(N)n3)CC2)C1N | – | 270 | 271 | 472 | 358 | 401 | 98.9 | 78.6 | 42.5 | 25.8 | 13.9 | 7.23 | 100 | 77.7 | 43 | 25.9 | 14.5 | 6.51 | 98.2 | 85.1 | viability, T/C [20]: 61.7%; viability, T/C [21]: 28.7%; viability, T/C [22]: 17.4%; viability, T/C [23]: 7.82%; viability, T/C [24]: 92.8%; viability, T/C [25]: 80.4%; viability, T/C [26]: 51.8%; viability, T/C [27]: 26.4%; viability, T/C [28]: 19.8%; viability, T/C [29]: 7.52%; viability, T/C [30]: 87.1%; viability, T/C [31]: 83.6%; viability, T/C [32]: 51.5%; viability, T/C [33]: 31%; viability, T/C [34]: 15.3%; viability, T/C [35]: 7.92%
CC1OCC2(CCN(c3cnc(Sc4ccnc(N)c4Cl)c(N)n3)CC2)C1N (stereo not given) + COc1cc2nc(C)nc(NC(C)c3cc(N)cc(C(F)(F)F)c3)c2cc1OC1CCOC1 | – | > 10000 | > 10000 | > 10000 | > 10000 | < 31.6 | 101 | 77.2 | 54.4 | 97.6 | 85.6 | 62.7 | 114 | 80.8 | 54.5 | 95.3 | 95.3 | 77.8 | 124 | 99.3 | viability, T/C [20]: 67.7%; viability, T/C [21]: 72.1%; viability, T/C [22]: 80%; viability, T/C [23]: 74.1%; viability, T/C [24]: 93.8%; viability, T/C [25]: 77.7%; viability, T/C [26]: 46%; viability, T/C [27]: 62.6%; viability, T/C [28]: 86.7%; viability, T/C [29]: 57.1%; viability, T/C [30]: 42.8%; viability, T/C [31]: 29.8%; viability, T/C [32]: 18.9%; viability, T/C [33]: 24.1%; viability, T/C [34]: 35.3%; viability, T/C [35]: 19.2%

Reference: PubChem BioAssay AID1963866 (Molecular Pharmacology Branch, DTP, NCI, 2024)
